According to patent publication US5622944A, “Testosterone prodrugs for improved drug delivery” (Affymax Technologies N.V., priority 1995, dated 1997):
Counter-ions that a name gives are not always drawn.

Experiments:
[1] = Water solubility (H2O sol); conditions: for solubility: H2O sol
in vitro [2] = format: cell-based, human; conditions: human, dermal fibroblasts, MTT; for CC50 at 2 h: IC50 2 h (cytotoxicity), 2 h incubation; for CC50 at 16 h: IC50 16 h (cytotoxicity), 16 h incubation
Protocol: As discussed above, the chemical modifier, when present in the subject in its free or released form, and in appropriately administered amounts, should preferably be non-toxic. Additionally, any further in vivo degradation products of the chemical modifier should be non-toxic, as well. Table 2 provides in vitro relative cytotoxicity data for a number of testosterone/chemical modifier complexes, prepared in accordance with the invention. The cytotoxicity assessment was carried out by examining the viability of human dermal fibroblasts in the presence of a number of testosterone/chemical modifier complexes in accordance with the present invention. Details of the experimental protocol are summarized in Example 27.
The viability of human dermal fibroblasts in the presence of the 17-hydroxy sterol/chemical modifier compounds was assayed using MTT (3-[4,5-dimethylthiazol-2-yl]-2,5-diphenyltetrazolium bromide) reduction to formazan by mitochondrial enzymes as an indicator of cytotoxicity (Swisher, et al.). Confluent fibroblast cells were incubated for 2 or 16 hours in the presence of increasing concentrations of drug complex. At the end of the incubation period, medium was replaced for 4 hours by medium containing the tetrazolium salt, MTT. Metabolism of MTT to a blue formazan was quantitated by spectrophotometry at 540 nm.

[3] = format: in vitro ADME, mouse; conditions: murine skin, active cells (ETm), 10 mM donor, 100 uA/cm^2, 6 h, 32° C.
Protocol: In vitro electrotransport of testosterone/chemical modifier complexes across hairless mouse skin was evaluated as described in Example 28. The experiments were conducted using modified Valia-Chien cells having 1.0 ml donor and 2.5 ml receptor cells. Anodic transport was carried out using a silver wire-based salt bridge in the donor compartment and a silver chloride cathode in the receptor. Cathodic transport was effected by reversing the electrode configuration. The cells were connected in series and a constant current and temperature were supplied to each cell.
After a predetermined period of time (6 h), aliquots were removed from the receiver phase for immediate analysis by HPLC to determine cumulative flux.
The electrotransport of testosterone/chemical modifier complexes was achieved using modified Valia-Chien cells (1.0 ml donor and 2.5 ml receptor cells). Full thickness, hairless mouse skin (Charles River Labs, Wilmington, Mass.) was soaked for one hour in phosphate buffered saline (PBS, pH=7.4) before placing between each compartment (dermal side of skin facing toward receptor). One passive (P1:data) and two or more (ETm :data) active cells were used to screen each compound.
A 10 mM (1 ml) aqueous solution of testosterone drug/prodrug was placed in the donor (unstirred) compartment and the receptor (stirred) was filled with 2.5 ml of PBS. In order to check for egress due to e.g. damaged skin, a zero hour sample of receptor ([…]) was taken one half hour after the drug solution was placed in the donor compartment. Replacement fluid of equal sample volume was added to the receptor compartment immediately after samples were taken.
Anodic electrotransport was achieved using a silver wire (immersed in a polyvinylalcohol-based salt bridge to minimize junction potential) in the donor compartment and a AgCl cathode in the receptor. […] The electrotransport cells were connected in series and constant current (100 uA/cm^2, […] for a skin area of 0.64 cm^2) and temperature (32° C.) were supplied to each cell. After six hours of active/passive transport, aliquots (200 ul) of the receptor were sampled and immediately analyzed by HPLC.
A standard plot of peak area and concentration for each compound was constructed using HPLC. The peak areas of the samples were determined and the concentrations calculated using the standard data. Cumulative flux was calculated using Quickbasic and reported in nmol/cm^2 /hr.

in vitro [4] = format: in vitro ADME; conditions: 37° C.; for half-life: human, serum
Protocol: The hydrolytic activity of the sterol prodrug may be evaluated by studies of the chemical or enzymatic conversion of the prodrug to the unmodified parent compound, as described in Example 26.
Generally, the sterol/chemical modifier complex is dissolved in a minimum amount of a suitable solvent, such as ethanol, and the resulting solution is added to a sample of human serum. Following incubation, aliquots are then removed at various time points and analyzed to determine the extent of hydrolysis. Table I herein lists the representative serum half-lives of a number of testosterone prodrugs according to the present invention.
The rates of conversion are readily determined, for example by spectrophotometric methods or by gas-liquid or high performance liquid chromatography. Half-lives and other kinetic parameters may then be calculated using standard techniques.
Determination of Testosterone Prodrug Hydrolysis in Serum
Stock solutions (6 mM) of the testosterone prodrugs were prepared in ethanol (dissolution was accomplished by vortexing, sonication, or warming at 37° C., as needed). If required for dissolution, one drop of a co-solvent such as dimethylsulfoxide, dimethylformamide or methanol was added. (Acetonitrile is undesirable because it deactivates the serum enzymes).
HPLC separation methods were established for each study by dilution of the above stock solutions (6 μl) in acetonitrile (1 ml) to form 36 μM solutions. Samples (10 μl) were injected onto a Nucleosil 5C8 column (250×4 mm ID) fitted with an additional guard column (11×4 mm ID) and eluted with a mobile phase of approximately 65% HPLC grade water and 35% trifluoroacetic acid in acetonitrile (0.1% TFA in acetonitrile). Exact proportions of the mobile phase eluents were adjusted in each case to give optimum separation and run times.
Freshly defrosted human serum (3 ml, Sigma) was warmed at 37° C. for five minutes and then the testosterone prodrug stock solution (60 μl) was added with vortexing. […] The aliquots were added to 800 μl of 2% zinc sulfate solution in a 1.5 ml disposable microcentrifuge tube, vortexed immediately and centrifuged at 14,000 RPM for 3 minutes. The supernatants (10 μl) were injected onto the HPLC and peak areas used to determine the percent of parent drug formed or percent of prodrug remaining. Serum blanks were prepared similarly by addition of serum to the zinc sulfate solution, followed by centrifugation. Initial (time=0) samples were prepared by adding serum to the zinc sulfate solution, followed by addition of the complex and separation by centrifugation. The time=0 samples, as well as the original stock solutions, were also used to assess the stability of the complex in the absence of enzyme. Half-lives were determined using the following equation : […]
and plotting time (x ordinate) versus the natural logarithm of percent remaining prodrug (y ordinate) to obtain the slope (m) and the y intercept (b).

[5] = footnote 1: prodrug remaining, no testosterone formed

SMILES | CC50 at 2 h (in vitro [2]) [µM] | CC50 at 16 h (in vitro [2]) [µM] | Degradation (Degradation (%/d)) [%/d] | solubility [1] [mg/mL] | Flux, active electrotransport (ET) [3] [nmol/cm^2 /hr] | half-life (in vitro [4]; HPLC) [h] | other results
C[C@]12CC[C@H]3[C@@H](CCC4=CC(=O)CC[C@@]43C)[C@@H]1CC[C@@H]2O [Code 1.0, 17β-hydroxyandrost-4-en-3-one, reference compound] | > 1000 | 423 | 0 | – | – | – | H2O sol [1]: 0.0 mg/mL
CCCCCCCCCCCCCCCC(=O)O[C@H](CC(=O)O[C@H]1CC[C@H]2[C@@H]3CCC4=CC(=O)CC[C@]4(C)[C@H]3CC[C@]12C)C[N+](C)(C)C [Code 1.1, testosterone-17β-(O-palmitoyl-L-carnitinate), chloride salt] | < 10 | < 10 | 0 | 26 | 0 | – | –
CC(=O)OC(CC(=O)O[C@H]1CC[C@H]2[C@@H]3CCC4=CC(=O)CC[C@]4(C)[C@H]3CC[C@]12C)C[N+](C)(C)C (stereo partly shown) [Code 1.2] | 91.6 | 34.4 | 0 | 22 | 7.3 ± 5.8 | 96 | –
C[C@]12CC[C@H]3[C@@H](CCC4=CC(=O)CC[C@@]43C)[C@@H]1CC[C@@H]2OC(=O)OCOC(=O)CNC(=O)OCOC(=O)CCCCC[N+](C)(C)C [Code 1.8] | – | – | – | – | – | 0.0667 | –
COC(=O)[C@H](COC(=O)O[C@H]1CC[C@H]2[C@@H]3CCC4=CC(=O)CC[C@]4(C)[C@H]3CC[C@]12C)[N+](C)(C)C [Code 1.9, testosterone-17β-(N,N,N-trimethyl-L-serine methyl ester) carbonate, tetrafluoroborate salt] | – | – | – | – | – | ~0.00125 | –
COC(=O)[C@H](COC(=O)O[C@H]1CC[C@H]2[C@@H]3CCC4=CC(=O)CC[C@]4(C)[C@H]3CC[C@]12C)[N+](C)(C)C [Code 2.0, testosterone-17β-(N,N,N-trimethyl-L-serine methyl ester) carbonate, bromide salt] | – | – | – | – | – | – | Serum half-life (in vitro [4]; human serum, HPLC): 5 s
C[C@]12CC[C@H]3[C@@H](CCC4=CC(=O)CC[C@@]43C)[C@@H]1CC[C@@H]2OC(=O)OCOC(=O)CC[N+](C)(C)C [Code 2.1, testosterone-17β-(N,N,N-trimethyl-β-alaninyloxymethyl)carbonate,iodide salt] | – | – | – | – | – | 0.0106 | –
C[C@]12CC[C@H]3[C@@H](CCC4=CC(=O)CC[C@@]43C)[C@@H]1CC[C@@H]2OC(=O)C[N+](C)(C)C [Code 2.2, testosterone-17β-betainoyl ester, bromide salt] | 2300 | 650 | 0 | 10 | 7.9 ± 4.1 | 14 | –
C[C@]12CC[C@H]3[C@@H](CCC4=CC(=O)CC[C@@]43C)[C@@H]1CC[C@@H]2OC(=O)CCC[N+](C)(C)C [Code 2.3] | 653 | 172 | 0 | 20 | 2.0 ± 0.8 | – | half-life (in vitro [4]; [5]): ~15 h
C[C@]12CC[C@H]3[C@@H](CCC4=CC(=O)CC[C@@]43C)[C@@H]1CC[C@@H]2OC(=O)c1cccnc1 [Code 2.7, Testosterone-17β-nicotinate] | > 1000 | > 1000 | – | – | – | ~840 | H2O sol [1]: 0.0 mg/mL
CN(C)CCCC(=O)O[C@H]1CC[C@H]2[C@@H]3CCC4=CC(=O)CC[C@]4(C)[C@H]3CC[C@]12C [Code 3.0] | – | – | – | – | – | – | half-life (in vitro [4]; footnote 2: prodrug remaining, ~50% testosterone and ~50% unknown formed): 106 h
CN(C)CCCC(=O)O[C@H]1CC[C@H]2[C@@H]3CCC4=CC(=O)CC[C@]4(C)[C@H]3CC[C@]12C [Code 3.1, testosterone-17β-[4-N,N-dimethylaminobutyrate], hydrochloride salt] | 255 | 145 | 0 | 22 | 0.7 ± 0.2 | – | –
CN(C)CCc1ccc(OC(=O)O[C@H]2CC[C@H]3[C@@H]4CCC5=CC(=O)CC[C@]5(C)[C@H]4CC[C@]23C)cc1 [Code 3.3, testosterone-17β-hordenine carbonate] | – | – | – | – | – | 8.2 | –
COC(=O)[C@H](COC(=O)O[C@H]1CC[C@H]2[C@@H]3CCC4=CC(=O)CC[C@]4(C)[C@H]3CC[C@]12C)N(C)C [Code 3.5] | – | – | – | – | – | 0.783 | –
C[C@]12CC[C@H]3[C@@H](CCC4=CC(=O)CC[C@@]43C)[C@@H]1CC[C@@H]2OC(=O)c1ccccn1 [Code 3.9, testosterone-17β-picolinate, hydrochloride salt] | – | – | – | – | – | 12.2 | –
C[n+]1ccccc1C(=O)O[C@H]1CC[C@H]2[C@@H]3CCC4=CC(=O)CC[C@]4(C)[C@H]3CC[C@]12C [Code 4.0] | 330 | 41.1 | – | 0.9 | – | – | half-life (in vitro [4]; HSO4^- salt): 1.08 h; half-life (in vitro [4]; iodide (I--) salt): 1.17 h
C[C@]12CC[C@H]3[C@@H](CCC4=CC(=O)CC[C@@]43C)[C@@H]1CC[C@@H]2OC(=O)CCC(=O)NCCS(=O)(=O)O [Code 4.2, testosterone-17β-[taurinesuccinamide ester], triethvlammonium salt] | – | – | – | – | 2.8 ± 3.7 | 24 | –
C[C@]12CC[C@H]3[C@@H](CC=C4C=C(OC(=O)CCC[N+](C)(C)C)CC[C@@]43C)[C@@H]1CC[C@@H]2OC(=O)CCC[N+](C)(C)C [Code 4.3, testosterone-3-enol, 17β-ol bis[4-(N,N,N-trimethylammonio)butyrate], dibromide salt] | – | – | – | – | 1.0 ± 0.6 | – | half-life (in vitro [4]; footnote 3: prodrug remaining, 60% [2.3] formed, no other products seen): 7.8 h
C[C@]12CC[C@H]3[C@@H](CC=C4C=C(OC(=O)CC[N+](C)(C)C)CC[C@@]43C)[C@@H]1CC[C@@H]2OC(=O)OCC[N+](C)(C)C [Code 4.4, testosterone-3-enol, 17β-ol 3-(N,N,N-trimethyl-β-alanine ester) 17-(choline carbonate), dibromide salt] | – | – | – | – | 0.2 ± 0.0 | – | half-life (in vitro [4]; [5]): 0.0383 h
